Measured values published in ChEMBL document CHEMBL4834455, “Sesquiterpenes and Steroids from an Endophytic Eutypella scoparia” (J Nat Prod, 2021).
The source made the active and inactive calls. No cut-off for these calls is given here.

Legend:
[1] = tested on: Staphylococcus aureus; assay: Antibacterial activity against Staphylococcus aureus CMCC26003 assessed as bacterial growth inhibition by microbroth dilution method; type: functional
[2] = Cytotoxicity against African green monkey MARC145 cells assessed as cell growth inhibition measured after 48 hrs by MTT assay; type: cell-based; conditions: chlorocebus aethiops, marc145, 48 h
[3] = tested on: MCF7; assay: Antiproliferative activity against human MCF7 cells assessed as cell growth inhibition measured after 48 hrs by MTT assay; type: functional, cell-based
[4] = tested on: HeLa; assay: Antiproliferative activity against human HeLa cells assessed as cell growth inhibition measured after 48 hrs by MTT assay; type: functional, cell-based
[5] = tested on: Staphylococcus aureus; assay: Antibacterial activity against methicillin-resistant Staphylococcus aureus JCSC3063 assessed as bacterial growth inhibition by microbroth dilution method; type: functional
[6] = tested on: MDA-MB-231; assay: Antiproliferative activity against human MDA-MB-231 cells assessed as cell growth inhibition measured after 48 hrs by MTT assay; type: functional, cell-based

Row | Compound | Activity [1] | Activity [2] | Activity [3] | Activity [4] | Activity [5] | Activity [6]
1 | CC(=O)OCC(=O)[C@H]1CC[C@]2(C)CCC=C(C)[C@H]2C1 | inactive | Non-Toxic | inactive | inactive | inactive | inactive
2 | CC1=CC(=O)C[C@@]2(C)CC[C@H](C(C)CO)C[C@H]12 (some centres not stated) | inactive | Non-Toxic | inactive | inactive | inactive | inactive
3 | C[C@H]1CCC(=O)[C@@]2(C)CCC(C(C)(C)O)=C[C@H]12 | inactive | Non-Toxic | inactive | inactive | inactive | inactive
4 | C=C(C(C)C)[C@H](O)C[C@@H](C)[C@H]1CC[C@@]2(C)C3=C(CC[C@]12C)[C@@]1(C)CCC(=O)C(C)(C)[C@@H]1CC3 | inactive | Non-Toxic | inactive | inactive | inactive | inactive
5 | CC1=CCC[C@@]2(C)C[C@H]3OC(=O)[C@@H](C)[C@@H]3C[C@H]12 | inactive | Non-Toxic | inactive | inactive | inactive | inactive
6 | C[C@H]1CCC(=O)[C@@]2(C)CC=C(C(C)(C)O)C[C@H]12 | inactive | Non-Toxic | inactive | inactive | inactive | inactive
7 | CC(C)[C@H](C)/C=C/[C@@H](C(=O)O)[C@H]1CCC2=C3C=C[C@H]4CC(=O)CC[C@]4(C)[C@H]3CC[C@@]21C | inactive | Non-Toxic | inactive | inactive | inactive | inactive
8 | CC1=CC(=O)C[C@@]2(C)CC[C@H](C(C)(C)O)C[C@H]12 | inactive | Non-Toxic | inactive | inactive | inactive | inactive
9 | CC[C@H](CC[C@@H](C)[C@H]1CC[C@H]2[C@@H]3CC=C4C[C@@H](O)CC[C@]4(C)[C@H]3CC[C@]12C)C(C)C [BETA-SITOSTEROL] | inactive | Non-Toxic | inactive | inactive | inactive | inactive
10 | CC1=CCC[C@H]2CC3=C(CO)C(=O)OC3=C[C@]12C | inactive | Non-Toxic | inactive | inactive | inactive | inactive
11 | CC(C)=CCC/C(C)=C/CC/C(C)=C/CC/C=C(\C)CC/C=C(\C)CCC=C(C)C [SQUALENE] | inactive | Non-Toxic | inactive | inactive | inactive | inactive
12 | CC1=CCCC2(C)CC[C@H](C(C)CO)C[C@H]12 (single isomer, unassigned) | 6.3 µg/mL | Non-Toxic | inactive | inactive | – | inactive
13 | C=C1CCC[C@@]2(C)CC[C@H](C(C)(C)O)C[C@H]12 | inactive | Non-Toxic | inactive | inactive | inactive | inactive
14 | C[C@H]1CCC(=O)[C@@]2(C)CC[C@H](C(C)(C)O)[C@H](O)[C@H]12 | inactive | Non-Toxic | inactive | inactive | inactive | inactive
15 | C=C1CCC(=O)[C@@]2(C)CC[C@H](C(C)(C)O)C[C@H]12 | inactive | Non-Toxic | inactive | inactive | inactive | inactive
16 | C=C1C[C@@H](O)C[C@@]2(C)CC[C@H](C(C)(C)O)C[C@H]12 | inactive | Non-Toxic | inactive | inactive | inactive | inactive
17 | CC(C)[C@@H](C)/C=C/[C@@H](C)[C@H]1CCC2=C3C=CC4=CC(=O)CC[C@]4(C)[C@H]3CC[C@@]21C | inactive | Non-Toxic | inactive | inactive | inactive | inactive
18 | CC1=C2C[C@@H](C(C)(C)O)CC[C@]2(C)CCC1=O | inactive | Non-Toxic | inactive | inactive | inactive | inactive
